Measured values as given in patent US5691366A, “Nitro compounds, process for preparation thereof and use thereof” (Fujisawa Pharmaceutical Co., Ltd., priority 1991, dated 1997).

What was measured:
[1] = test system: Mean Arterial Blood Pressure in Anesthetized Rats; assay: Effect on mean arterial blood pressure in anesthetized rats (intravenous); format: in vivo, rat (male Sprague-Dawley); conditions: for Hypotensive effect T 1/2: i.v., time to recover to half of maximal decrease
Protocol: Male Sprague-Dawley rats, aged 9-12 weeks, were anesthetized with urethane (1.4 g/kg i.p.). A polyethylene cannula filled with heparin solution was inserted into the femoral artery of the rats to measure mean blood pressure. Mean blood pressure was measured with a pressure transducer and recorded on a polygraph. The test compound dissolved in ethanol, polyethylene glycol and distilled water (1:1:2), were administered intraveneously in a volume of 0.25 ml/kg. Intravenous hypothypotensive effects of each compound were expressed as the maximal decrease (R max) and the half time (T 1/2). Briefly, R max was expressed as maximal % change compared to mean blood pressure prior to the administration of compound. T 1/2 was expressed as a time during which the hypotensive effect recovered to half of the maximal decrease.

[2] = test system: Mean Arterial Blood Pressure in Conscious Rats; assay: Effect on mean arterial blood pressure in conscious rats (oral); format: in vivo, rat (male Sprague-Dawley); conditions: for Hypotensive effect Dur.: time to recover to 5% of maximal decrease; for Hypotensive effect T 1/2: time to recover to half of maximal decrease; for inhibition in vivo at 10 mg/kg / inhibition in vivo at 32 mg/kg: Rattus norvegicus, po, maximal % decrease of mean blood pressure, read-out: Hypotensive effect R max
Protocol: Male Sprague-Dawley rats, aged 9-11 weeks, were anesthetized with ether and a polyethylene cannula filled with heparin solution was inserted into the femoral artery of the rats to measure mean blood pressure. Mean blood pressure was measured with a pressure transducer and recorded on a polygraph. Two hours after operation, the drug suspended in 0.5% methyl cellulose was administered orally in a volume of 5 ml/kg. Oral hypotensive effects of each compound were expressed as the maximal decrease (R max), the half time (T 1/2) and the duration (Dur.). Briefly, R max was expressed as maximal % change compared to mean blood pressure prior to the administration of compound. T 1/2 was expressed as a time during which the hypotensive effect recovered to half of the maximal decrease. Duration was expressed as a time during which the hypotensive effect recovered to 5% of the maximal decrease.

[3] = Rattus norvegicus, iv, 0.32 mg/kg, maximal % decrease of mean blood pressure, read-out: Hypotensive effect R max
[4] = Rattus norvegicus, iv, 1.0 mg/kg, maximal % decrease of mean blood pressure, read-out: Hypotensive effect R max

SMILES: CCC(C(C)=CC(CNC(=O)c1cccnc1)=NO)[N+](=O)[O-] (single isomer, unassigned) [Example 18 A, N-(2-hydroxyimino-4-methyl-5-nitro-3-hepten-1-yl)-3-pyridinecarboxamide]
- inhibition in vivo at 0.32 mg/kg [1, 3]: 10.2%
- inhibition in vivo at 1 mg/kg [1, 4]: 33.6%
- Hypotensive effect T 1/2 ([1]; 1.0 mg/kg): 31.5 min
- Hypotensive effect Dur. ([2]; 10 mg/kg): 57.0 min
- Hypotensive effect T 1/2 ([2]; 10 mg/kg): 40.1 min
- Hypotensive effect Dur. ([2]; 32 mg/kg): 156.4 min
- Hypotensive effect T 1/2 ([2]; 32 mg/kg): 88.7 min
- inhibition in vivo at 10 mg/kg ([2]; 10 mg/kg): 25.7%
- inhibition in vivo at 32 mg/kg ([2]; 32 mg/kg): 46.9%

SMILES: CCC(C(C)=CC(CNC(=O)c1cccnc1)=NO)[N+](=O)[O-] (single isomer, unassigned) [Example 18 B, N-(2-hydroxyimino-4-methyl-5-nitro-3-hepten-1-yl)-3-pyridinecarboxamide]
- Hypotensive effect T 1/2 ([1]; 1.0 mg/kg): 20.2 min
- Hypotensive effect Dur. ([2]; 10 mg/kg): 54.7 min
- Hypotensive effect T 1/2 ([2]; 10 mg/kg): 26.4 min
- Hypotensive effect Dur. ([2]; 32 mg/kg): 97.2 min
- Hypotensive effect T 1/2 ([2]; 32 mg/kg): 56.1 min

SMILES: CC(=CC(CNC(=O)c1cccnc1)=NO)C(C)[N+](=O)[O-] (single isomer, unassigned) [Example 19 A, N-(2-Hydroxyimino-4-methyl-5-nitro-3-hexen-1-yl)-3-pyridinecarboxamide]
- inhibition in vivo at 0.32 mg/kg [1, 3]: 40.3%
- Hypotensive effect T 1/2 ([1]; 0.32 mg/kg): 12.6 min

SMILES: CC(=CC(CNC(=O)c1cccnc1)=NO)C(C)[N+](=O)[O-] (single isomer, unassigned) [Example 19 B, N-(2-Hydroxyimino-4-methyl-5-nitro-3-hexen-1-yl)-3-pyridinecarboxamide]
- Hypotensive effect T 1/2 ([1]; 0.32 mg/kg): 11.0 min

SMILES: CCC(=CC(CNC(=O)c1cccnc1)=NO)C(CC)[N+](=O)[O-] (single isomer, unassigned) [Example 25 A, N-(4-Ethyl-2-hydroxyimino-5-nitro-3-hepten-1-yl)-3-pyridinecarboxamide]
- inhibition in vivo at 0.32 mg/kg [1, 3]: 24.1%
- Hypotensive effect T 1/2 ([1]; 0.32 mg/kg): 13.1 min
- Hypotensive effect T 1/2 ([2]; 10 mg/kg): 22.5 min
- Hypotensive effect T 1/2 ([2]; 32 mg/kg): 56.7 min
- inhibition in vivo at 32 mg/kg ([2]; 32 mg/kg): 26%

SMILES: CCC(=CC(CNC(=O)c1cccnc1)=NO)C(CC)[N+](=O)[O-] (single isomer, unassigned) [Example 25 B, N-(4-Ethyl-2-hydroxyimino-5-nitro-3-hepten-1-yl)-3-pyridinecarboxamide]
- Hypotensive effect T 1/2 ([2]; 10 mg/kg): 14.6 min

SMILES: CCC(=CC(CNC(=O)c1cccnc1C)=NO)C(C)[N+](=O)[O-] (single isomer, unassigned) [Example 30 A, N-(4-Ethyl-2-hydroxyimino-5-nitro-3-hexen-1-yl)-2-methyl-3-pyridinecarboxamide]
- inhibition in vivo at 0.32 mg/kg [1, 3]: 37.9%
- Hypotensive effect T 1/2 ([1]; 0.32 mg/kg): 16.9 min
- Hypotensive effect Dur. ([2]; 10 mg/kg): 108.0 min
- Hypotensive effect T 1/2 ([2]; 10 mg/kg): 36.0 min
- Hypotensive effect Dur. ([2]; 32 mg/kg): 211.1 min
- Hypotensive effect T 1/2 ([2]; 32 mg/kg): 56.2 min
- inhibition in vivo at 10 mg/kg ([2]; 10 mg/kg): 40.6%
- inhibition in vivo at 32 mg/kg ([2]; 32 mg/kg): 39.3%

SMILES: CCC(=CC(CNC(=O)c1cccnc1C)=NO)C(C)[N+](=O)[O-] (single isomer, unassigned) [Example 30 B, N-(4-Ethyl-2-hydroxyimino-5-nitro-3-hexen-1-yl)-2-methyl-3-pyridinecarboxamide]
- Hypotensive effect T 1/2 ([1]; 0.32 mg/kg): 13.0 min
- Hypotensive effect T 1/2 ([2]; 10 mg/kg): 20.9 min

SMILES: CCC(=CC(CNC(=O)c1cccnc1SC)=NO)C(C)[N+](=O)[O-] (single isomer, unassigned) [Example 31 A, N-(4-Ethyl-2-hydroxyimino-5-nitro-3-hexen-1-yl)-2-methylthio-3-pyridinecarboxamide]
- inhibition in vivo at 0.32 mg/kg [1, 3]: 24.3%
- Hypotensive effect T 1/2 ([2]; 10 mg/kg): 10.4 min
- inhibition in vivo at 10 mg/kg ([2]; 10 mg/kg): 14.9%

SMILES: CCC(=CC(CNC(=O)c1cccnc1O)=NO)C(C)[N+](=O)[O-] (single isomer, unassigned) [Example 33 A, N-(4-Ethyl-2-hydroxyimino-5-nitro-3-hexen-1-yl)-2-hydroxy-3-pyridinecarboxamide]
- inhibition in vivo at 0.32 mg/kg [1, 3]: 20.9%
- Hypotensive effect T 1/2 ([1]; 0.32 mg/kg): 11.9 min
- Hypotensive effect T 1/2 ([2]; 10 mg/kg): 18.3 min
- inhibition in vivo at 10 mg/kg ([2]; 10 mg/kg): 23.1%

SMILES: CCC(=CC(CNC(=O)c1nc[nH]c1C)=NO)C(C)[N+](=O)[O-] (single isomer, unassigned) [Example 45 A, N-(4-Ethyl-2-hydroxyimino-5-nitro-3-hexen-1-yl)-5-methy-4-imidazolecarboxamide]
- inhibition in vivo at 0.32 mg/kg [1, 3]: 31.2%
- Hypotensive effect T 1/2 ([1]; 0.32 mg/kg): 11.9 min
- Hypotensive effect Dur. ([2]; 10 mg/kg): 52.3 min
- Hypotensive effect T 1/2 ([2]; 10 mg/kg): 26.6 min
- inhibition in vivo at 10 mg/kg ([2]; 10 mg/kg): 35.4%

SMILES: CC(C)C(=CC(CNC(=O)c1cccnc1)=NO)C(C)[N+](=O)[O-] (centres unmarked) [Example 20, N-(2-Hydroxyimino-4-isopropyl-5-nitro-3-hexen-1-yl)-3-pyridinecarboxamide]
- inhibition in vivo at 0.32 mg/kg [1, 3]: 3.8%
- inhibition in vivo at 3.2 mg/kg ([1]; Rattus norvegicus, iv, 3.2 mg/kg, maximal % decrease of mean blood pressure, read-out: Hypotensive effect R max): 48.4%
- Hypotensive effect T 1/2 ([1]; 3.2 mg/kg): 20.1 min
- Hypotensive effect T 1/2 ([2]; 10 mg/kg): 28.5 min
- inhibition in vivo at 10 mg/kg ([2]; 10 mg/kg): 20.1%

SMILES: O=C(NCC(C=C1CCCCC1[N+](=O)[O-])=NO)c1cccnc1 (centres unmarked) [Example 21, N-[2-Hydroxyimino-3-(2-nitrocyclohexylidene)propyl]-3-pyridinecarboxamide]
- inhibition in vivo at 0.32 mg/kg [1, 3]: 26.5%
- Hypotensive effect T 1/2 ([1]; 0.32 mg/kg): 13.1 min
- Hypotensive effect Dur. ([2]; 10 mg/kg): 67.7 min
- Hypotensive effect T 1/2 ([2]; 10 mg/kg): 34.1 min
- Hypotensive effect Dur. ([2]; 32 mg/kg): > 300 min
- Hypotensive effect T 1/2 ([2]; 32 mg/kg): 88.1 min
- inhibition in vivo at 10 mg/kg ([2]; 10 mg/kg): 34.3%
- inhibition in vivo at 32 mg/kg ([2]; 32 mg/kg): 34.3%

SMILES: COCC(C(C)=CC(CNC(=O)c1ccncc1)=NO)[N+](=O)[O-] (centres unmarked) [Example 22, N-(2-Hydroxyimino-6-methoxy-4-methyl-5-nitro-3-hexen-1-yl)-4-pyridinecarboxamide]
- inhibition in vivo at 0.32 mg/kg [1, 3]: 17.7%
- inhibition in vivo at 1 mg/kg [1, 4]: 35.9%
- Hypotensive effect T 1/2 ([1]; 1.0 mg/kg): 24.9 min
- Hypotensive effect T 1/2 ([2]; 10 mg/kg): 29.9 min
- Hypotensive effect T 1/2 ([2]; 32 mg/kg): 63.2 min
- inhibition in vivo at 10 mg/kg ([2]; 10 mg/kg): 19.2%
- inhibition in vivo at 32 mg/kg ([2]; 32 mg/kg): 25.7%

SMILES: CCC(=CC(CNC(C)=O)=NO)C(CC)[N+](=O)[O-] (centres unmarked) [Example 24, 1Acetylamino-4-ethyl-2-hydroxyimino-5-nitro-3-heptene]
- inhibition in vivo at 0.32 mg/kg [1, 3]: 31.8%
- Hypotensive effect T 1/2 ([1]; 0.32 mg/kg): 13.6 min
- Hypotensive effect T 1/2 ([2]; 10 mg/kg): 16.6 min
- inhibition in vivo at 10 mg/kg ([2]; 10 mg/kg): 40.7%

SMILES: CCC(=CC(CNC(=O)c1cnccc1C(N)=O)=NO)C(C)[N+](=O)[O-] (centres unmarked) [Example 28, 3-[N-(4-Ethyl-2-hydroxyimino-5-nitro-3-hexen-1-yl)-carbamoyl]-4-pyridinecarboxamide]
- inhibition in vivo at 0.32 mg/kg [1, 3]: 22.2%
- inhibition in vivo at 1 mg/kg [1, 4]: 31.4%
- Hypotensive effect T 1/2 ([1]; 1.0 mg/kg): 11.9 min

SMILES: CCC(=CC(CNC(=O)C(N)=O)=NO)C(C)[N+](=O)[O-] (centres unmarked) [Example 40 A]
- Hypotensive effect Dur. ([2]; 10 mg/kg): 71.1 min
- Hypotensive effect T 1/2 ([2]; 10 mg/kg): 25.2 min
- inhibition in vivo at 10 mg/kg ([2]; 10 mg/kg): 47.8%

SMILES: CCC(=CC(CNC(=O)C(N)=O)=NO)C(C)[N+](=O)[O-] (centres unmarked) [Example 40]
- inhibition in vivo at 0.32 mg/kg [1, 3]: 52.3%
- Hypotensive effect T 1/2 ([1]; 0.32 mg/kg): 11.3 min

SMILES: CCC(=CC(CNC(=O)Cc1cccnc1)=NO)C(C)[N+](=O)[O-] (centres unmarked) [Example 42, N-(4-Ethyl-2-hydroxyimino-5-nitro-3-hexen-1-yl)-3-pyridylacetamide]
- inhibition in vivo at 0.32 mg/kg [1, 3]: 44.4%
- Hypotensive effect T 1/2 ([1]; 0.32 mg/kg): 14.2 min

SMILES: CCC(=CC(CNC(=O)c1sc(C)nc1C)=NO)C(C)[N+](=O)[O-] (centres unmarked) [Example 43, N-(4-Ethyl-2-hydroxyimino-5-nitro-3-hexen-1-yl)-2,4-dimethylthiazole-5-carboxamide]
- inhibition in vivo at 0.32 mg/kg [1, 3]: 53.1%
